Experimental data from patent US11000033B2, “Ketone or oxime compound, and herbicide” (NISSAN CHEMICAL CORPORATION, priority 2014, dated 2021).

Assays:
Format in all cases: in vivo
[1] = test system: Avena fatua; test: Test Example 5: herbicidal effect by foliage application, plastic box (symbol I); conditions: 320 g/ha, 3 weeks after application
In short: (§1)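 Emulsion formulation, diluted with water to the intended rate, was applied uniformly to leaves by small sprayer. Recipients were 14-day greenhouse-grown seedlings (25° C. to 30° C.). Assessment followed at 3 weeks.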

[2] = test system: Stellaria media; test: Test Example 4: herbicidal effect by soil treatment (symbol P); conditions: for P (Stellaria media) herbicidal effect grade: application herbicide amount 320 g/ha; for P: Stellaria media, herbicidal effect grade: 320 g/ha
In short: (§2)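 Seeds were sown in sterilized diluvial soil, covered with about 1.5 cm of soil, and the soil surface was sprayed with a water-diluted emulsion of the compound at a predetermined rate. Plants grew in a greenhouse at 25° C. to 30° C.; effects were scored visually 3 weeks after application.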

[3] = test system: Galium spurium; test: Test Example 4: herbicidal effect by soil treatment (symbol Q); conditions: for Q (Galium spurium) herbicidal effect grade: application herbicide amount 320 g/ha; for Q: Galium spurium, herbicidal effect grade: 320 g/ha
In short: as §2

[4] = test system: Apera spica-venti; test: Test Example 4: herbicidal effect by soil treatment (symbol L); conditions: for L (Apera spica-venti) herbicidal effect grade: application herbicide amount 320 g/ha; for L: Apera spica-venti, herbicidal effect grade: 320 g/ha
In short: as §2

[5] = test system: Setaria viridis; test: Test Example 4: herbicidal effect by soil treatment (symbol G); conditions: for G (Setaria viridis) herbicidal effect grade: application herbicide amount 320 g/ha; for G: Setaria viridis, herbicidal effect grade: 320 g/ha
In short: as §2

[6] = test system: Chenopodium album; test: Test Example 5: herbicidal effect by foliage application, plastic box (symbol O); conditions: 320 g/ha, 3 weeks after application
In short: as §1

[7] = test system: Monochoria vaginalis; test: Test Example 1: herbicidal activity, application before weed generation in submerged conditions (symbol C); conditions: application herbicide amount 320 g/ha
In short: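 Mixed weed seeds sown in alluvial soil under 4 cm of water, with rice seedlings at the 2.5-leaf stage added. Same-day treatment: emulsion diluted to a set herbicide amount onto the water. Three weeks at 25–30 °C, then graded on a six-step scale.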

[8] = test system: Veronica persica; test: Test Example 4: herbicidal effect by soil treatment (symbol R); conditions: for R (Veronica persica) herbicidal effect grade: application herbicide amount 320 g/ha; for R: Veronica persica, herbicidal effect grade: 320 g/ha
In short: as §2

[9] = test system: Amaranthus retroflexus; test: Test Example 4: herbicidal effect by soil treatment (symbol N); conditions: for N (Amaranthus retroflexus) herbicidal effect grade: application herbicide amount 320 g/ha; for N: Amaranthus retroflexus, herbicidal effect grade: 320 g/ha
In short: as §2

[10] = test system: beet; test: Test Example 5: effect on crop by foliage application, plastic box (symbol f); conditions: 320 g/ha, 3 weeks after application
In short: (§3)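 Soil: sterilized diluvial. Container: plastic box, 21 × 13 cm, 7 cm deep. Sowing: spot-like, ~1.5 cm cover. Growth: greenhouse, 25° C. to 30° C.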

[11] = test system: Setaria viridis; test: Test Example 5: herbicidal effect by foliage application, plastic box (symbol G); conditions: 320 g/ha, 3 weeks after application
In short: as §1

[12] = test system: rice plant; test: Test Example 5: effect on crop by foliage application, plastic box (symbol b); conditions: 320 g/ha, 3 weeks after application
In short: as §3

[13] = test system: Echinochloa oryzacola Vasing.; test: Test Example 2: herbicidal activity, application during weed generation in submerged conditions (symbol A); conditions: Table 23; application herbicide amount 320 g/ha; grade 0-5 by criteria of Test Example 1
In short: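 Visual herbicidal ratings, taken three weeks after dosing, reflect post-emergence water-surface application to seedlings at one to two leaves. Conditions: co-sown weeds in alluvial soil flooded to 4 cm, greenhouse held at 25° C. to 30° C.; compound given as water-diluted emulsion at a fixed herbicide amount.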

Row | SMILES | I: Avena fatua, herbicidal effect grade [1] | P (Stellaria media) herbicidal effect grade [2] | Q (Galium spurium) herbicidal effect grade [3] | L (Apera spica-venti) herbicidal effect grade [4] | G (Setaria viridis) herbicidal effect grade [5] | O: Chenopodium album, herbicidal effect grade [6] | Herbicidal effect grade, C: Monochoria vaginalis [7] | R (Veronica persica) herbicidal effect grade [8] | N (Amaranthus retroflexus) herbicidal effect grade [9] | f: beet, effect on crop grade [10] | G: Setaria viridis, herbicidal effect grade [11] | b: directly sowed rice plant, effect on crop grade [12] | Herbicidal effect grade, A: Echinochloa oryzacola Vasing. [13] | I: Avena fatua, herbicidal effect (criteria 0-5) [1] | P: Stellaria media, herbicidal effect grade [2] | Q: Galium spurium, herbicidal effect grade [3] | L: Apera spica-venti, herbicidal effect grade [4] | G: Setaria viridis, herbicidal effect grade [5] | O: Chenopodium album, herbicidal effect (criteria 0-5) [6] | R: Veronica persica, herbicidal effect grade [8] | other results
1 | CON=C(C)CC1CC(OC(=O)COc2ccccc2OC)=C(c2c(C)cc(C)cc2C)C1=O (centres unmarked) [1-067] | 5 (Herbicidal ratio of 90% or more (almost completely withered)) | 0 (Herbicidal ratio of 5% or lower (almost no effect)) | 0 (Herbicidal ratio of 5% or lower (almost no effect)) | 5 (Herbicidal ratio of 90% or more (almost completely withered)) | 5 (Herbicidal ratio of 90% or more (almost completely withered)) | 2 (Herbicidal ratio of 20% or higher and lower than 40%) | 1 (Herbicidal ratio of 5% or higher and lower than 20%) | 0 (Herbicidal ratio of 5% or lower (almost no effect)) | 5 (Herbicidal ratio of 90% or more (almost completely withered)) | 1 (Herbicidal ratio of 5% or higher and lower than 20%) | 5 (Herbicidal ratio of 90% or more (almost completely withered)) | 5 (Herbicidal ratio of 90% or more (almost completely withered)) | 4 (Herbicidal ratio of 70% or higher and lower than 90%) | – | – | – | – | – | – | – | –
2 | CON=C(C)CC1CC(OC(=O)COc2cccc(OC)c2)=C(c2c(C)cc(C)cc2C)C1=O (centres unmarked) [1-068] | 5 (Herbicidal ratio of 90% or more (almost completely withered)) | 0 (Herbicidal ratio of 5% or lower (almost no effect)) | 0 (Herbicidal ratio of 5% or lower (almost no effect)) | 5 (Herbicidal ratio of 90% or more (almost completely withered)) | 5 (Herbicidal ratio of 90% or more (almost completely withered)) | 1 (Herbicidal ratio of 5% or higher and lower than 20%) | 3 (Herbicidal ratio of 40% or higher and lower than 70%) | 0 (Herbicidal ratio of 5% or lower (almost no effect)) | 4 (Herbicidal ratio of 70% or higher and lower than 90%) | 3 (Herbicidal ratio of 40% or higher and lower than 70%) | 5 (Herbicidal ratio of 90% or more (almost completely withered)) | 5 (Herbicidal ratio of 90% or more (almost completely withered)) | 5 (Herbicidal ratio of 90% or more (almost completely withered)) | – | – | – | – | – | – | – | –
3 | CON=C(C)CC1CC(OC(=O)COc2ccccc2[N+](=O)[O-])=C(c2c(C)cc(C)cc2C)C1=O (centres unmarked) [1-071] | 5 (Herbicidal ratio of 90% or more (almost completely withered)) | 0 (Herbicidal ratio of 5% or lower (almost no effect)) | 0 (Herbicidal ratio of 5% or lower (almost no effect)) | 5 (Herbicidal ratio of 90% or more (almost completely withered)) | 5 (Herbicidal ratio of 90% or more (almost completely withered)) | 1 (Herbicidal ratio of 5% or higher and lower than 20%) | 0 (Herbicidal ratio of 5% or lower (almost no effect)) | 0 (Herbicidal ratio of 5% or lower (almost no effect)) | 4 (Herbicidal ratio of 70% or higher and lower than 90%) | 0 (Herbicidal ratio of 5% or lower (almost no effect)) | 5 (Herbicidal ratio of 90% or more (almost completely withered)) | 5 (Herbicidal ratio of 90% or more (almost completely withered)) | 5 (Herbicidal ratio of 90% or more (almost completely withered)) | – | – | – | – | – | – | – | –
4 | CON=C(C)CC1CC(OC(=O)C(C)Oc2ccc(Oc3cnc4cc(Cl)ccc4n3)cc2)=C(c2c(C)cc(C)cc2C)C1=O (centres unmarked) [1-087] | – | – | – | – | – | – | 1 (Herbicidal ratio of 5% or higher and lower than 20%) | – | – | – | – | – | 5 (Herbicidal ratio of 90% or more (almost completely withered)) | 5 (Herbicidal ratio of 90% or more (almost completely withered)) | 0 (Herbicidal ratio of 5% or lower (almost no effect)) | 0 (Herbicidal ratio of 5% or lower (almost no effect)) | 5 (Herbicidal ratio of 90% or more (almost completely withered)) | 5 (Herbicidal ratio of 90% or more (almost completely withered)) | 0 (Herbicidal ratio of 5% or lower (almost no effect)) | 0 (Herbicidal ratio of 5% or lower (almost no effect)) | N: Amaranthus retroflexus, herbicidal effect grade [9]: 5 (Herbicidal ratio of 90% or more (almost completely withered)); f: beet, effect on crop (criteria 0-5) [10]: 4 (Herbicidal ratio of 70% or higher and lower than 90%); G: Setaria viridis, herbicidal effect (criteria 0-5) [11]: 5 (Herbicidal ratio of 90% or more (almost completely withered)); b: directly sowed rice plant, effect on crop (criteria 0-5) [12]: 5 (Herbicidal ratio of 90% or more (almost completely withered))
5 | CON=C(C)CC1CC(OC(=O)C=Cc2ccco2)=C(c2c(C)cc(C)cc2C)C1=O (centres unmarked) [1-091] | – | – | – | – | – | – | 0 (Herbicidal ratio of 5% or lower (almost no effect)) | – | – | – | – | – | 5 (Herbicidal ratio of 90% or more (almost completely withered)) | 5 (Herbicidal ratio of 90% or more (almost completely withered)) | 0 (Herbicidal ratio of 5% or lower (almost no effect)) | 0 (Herbicidal ratio of 5% or lower (almost no effect)) | 5 (Herbicidal ratio of 90% or more (almost completely withered)) | 5 (Herbicidal ratio of 90% or more (almost completely withered)) | 0 (Herbicidal ratio of 5% or lower (almost no effect)) | 0 (Herbicidal ratio of 5% or lower (almost no effect)) | N: Amaranthus retroflexus, herbicidal effect grade [9]: 0 (Herbicidal ratio of 5% or lower (almost no effect)); f: beet, effect on crop (criteria 0-5) [10]: 0 (Herbicidal ratio of 5% or lower (almost no effect)); G: Setaria viridis, herbicidal effect (criteria 0-5) [11]: 5 (Herbicidal ratio of 90% or more (almost completely withered)); b: directly sowed rice plant, effect on crop (criteria 0-5) [12]: 5 (Herbicidal ratio of 90% or more (almost completely withered))
